Laboratory results as given in patent US12435051B2, “Dual modulator of mGluR5 and 5-HT2A receptor, and use thereof” (Vivozon Inc., priority 2020, dated 2025).
pIC50: −log10 of the molar value. Read-outs that look alike come from different tables or passages of the source.

What was measured:
human 5-HT2AR = biological target: T1, human 5-HT2AR (Homo sapiens, UniProt P28223); experiment: HTRF-based IP1 accumulation assay (5-HT2AR antagonistic effect); format: cell-based; conditions: HEK293 cells overexpressing human 5-HT2AR; serotonin at EC80
T1 construct: expressed in transfected cells; host or cells: HEK293
Experimental: The 5-HT2AR antagonistic effect of the test compounds was confirmed by measuring the production amount of IP1 using the HEK293 cell line permanently overexpressing the human 5-HT2AR. The test compounds were dissolved in 100% DMSO to a final concentration of 10 mM. The starting concentration of 10 μM was prepared from the stock solution, followed by serial dilutions to prepare working solutions in a buffer containing lithium chloride (LiCl). The cells and compounds prepared in the test buffer were placed in a 96-well plate and incubated at room temperature for 10 minutes. Serotonin of EC80 concentration was added, followed by incubation at 37° C. for 30 minutes in a light-shielding state. To measure IP1 accumulation in cells, JP1-d2 acceptor and IP1-Cryptate donor-which are HTRF-based substances for fluorescence signals-were added and incubated for 1 hour at room temperature in a light-shielded state. The fluorescent emission signals of acceptor and donor were detected, and HTRF ratio values were substracted by mean value of serotonin control. The percentage of activation was calculated by normalization of the serotonin control (0%) and IP1 control (100%). The IC50 values of the test compounds are represented in Table 1. (+: 1,000-2,000 nM, ++: 500-1,000 nM, +++: 100-500 nM, ++++: less than 100 nM).

mGluR5 = biological target: T2, mGluR5 (Homo sapiens, UniProt P41594); experiment: Fluorescence-based Ca2+ mobilization assay; format: cell-based; conditions: HEK293 cells overexpressing mGluR5; L-glutamate at EC80
T2 construct: expressed in transfected cells; host or cells: HEK293
Experimental: In order to measure the activity on the mGluR5, an experiment was carried out to check the change in the intracellular Ca^2+ level using the HEK293 cell line permanently overexpressing the mGluR5. The cells in the cell culture medium were aliquoted into a 384-well plate coated with poly-D-lysine and cultured in a 37° C. incubator supplied with 5% CO2. The next day, the medium was removed and a dye loading buffer—in which a reagent capable of measuring Ca^2+ was dissolved—was added, and then incubated at 37° C. for 60 minutes. The test compounds were dissolved in 100% DMSO at a final concentration of 10 mM to make a stock solution. The starting concentration of […] was prepared from the stock solution, followed by serial dilutions to prepare working solutions (test compound working solutions). The test compound working solutions were added to the cells that were incubated in the dye loading buffer, which were maintained for 30 minutes at room temperature in a light-shielding state before measurement. The Ca^2+ level change induced by L-glutamate at EC80 concentration was measured for 2 minutes using FLIPR Tetra (MDS Analytical Technologies). The fluorescent Ca^2+ signal values in the presence of the test compounds were normalized to the fluorescent signal elicited by […] concentration of L-glutamate as 100% and that elicited by vehicle as 0% to estimate % inhibition of the test compounds. The efficacy of the test compounds was calculated as IC50 values and represented in Table 1. (+: 1,000-2,000 nM, ++: 500-1,000 nM, +++: 100-500 nM, ++++: less than 100 nM).

[1] = system: physical (tactile) allodynia in spinal nerve ligation model; experiment: Analgesic efficacy experiment using animal model (Chung model, spinal nerve ligation); format: in vivo, Sprague-Dawley rats; conditions: rat, oral; for inhibition in vivo at 100 mg/kg: 100 mpk; for inhibition in vivo at 12.5 mg/kg: 12.5 mpk; for inhibition in vivo at 50 mg/kg: 50 mpk
Experimental: The Chung model (spinal nerve ligation model) is a representative animal model to study neuropathic pain and is widely accepted as a gold standard for an animal pain model by global pharmaceutical companies around the world.
In this experiment, male Sprague-Dawley rats (100-120 g) purchased from Koatech (Pyeongtaek-si, Gyeonggi-do) were used. Rats were kept in a room maintained at constant temperature and humidity with a 12 hour light-dark cycle. Rats were allowed to eat and drink freely during the experiment.
For the Chung surgery, rats were anesthetized by isoflurane inhalation and the left lumbar nerves L5 and L6 were tightly tied with a suture thread (6-0 silk thread) at the end of the dorsal ganglion and at a front of an entrance to the sciatic nerve according to the article (Kim and Chung (1992), Pain 50(3):355-63). After suturing the incision, the rats were recovered for 2 weeks in the controlled maintenance room to induce physical allodynia in the left hind paw of the rat. To measure physical (tactile) allodynia, the rats were placed in a cage with a wire mesh on the bottom. Stimuli of increasing intensity (using the von Frey filaments in a range of 0.41 to 15.8 g) were placed on the plantar surface on the side of the nerve injury. The stimulus intensity at which the pain response (abrupt lifting, licking or sucking of the foot) was induced was recorded while applying gradual increment of stimuli. As described in the study of Chaplan et al. (1994) (Chaplan et al. (1994) J. Neurosci. Methods 53(1):55-63), the paw withdrawal threshold (PWT) was determined by increasing or decreasing continuous stimulus intensity, and the result was analyzed by applying Dixon's up-down method. Only rats showing no behavior dysfunction (e.g., feet dragging or dropping) were selected and included in the study, and the PWT of the rats used was 3.16 g or less.
After measuring the degree of basic reaction before drug injection, each compound and solvent were injected by oral administration (12.5-100 mg/kg), and the measurement was repeated at regular time intervals (60 and 120 minutes) after the drug was injected.
The experimenter conducted the PWT measurement in a blind condition not knowing which rat was administered with which drug. The control group was administered with gabapentin (65 mg/kg, intraperitoneal administration), and was randomly mixed during the measurement. Statistical analysis was performed on the measured pain response threshold by calculating the reversal rate (% reversal) from pain in Equation 1 below. […] Pain reversal rate (% reversal)=[(PWT after drug administration)−(PWT before drug administration)]*100/[(15 g, Estimated PWT in normal animals)−(PWT before drug administration)] [Equation 1]
The PWT used in this time is a value obtained by multiplying the gram, the unit of “force” measure, by 10,000, and taking the logarithm, which is a method generally used in academia.
Each experiment consisted of the compound group, the solvent group of the compound and the gabapentin (GBP) group as positive control group. As solvent of the compound, 0.5% HPMC (hydroxypropylmethyl cellulose) was used.

[2] = 1 h, read-out: % reversal (1 h)
[3] = 2 h, read-out: % reversal (2 h)

T1 sequence (P28223 whole entry): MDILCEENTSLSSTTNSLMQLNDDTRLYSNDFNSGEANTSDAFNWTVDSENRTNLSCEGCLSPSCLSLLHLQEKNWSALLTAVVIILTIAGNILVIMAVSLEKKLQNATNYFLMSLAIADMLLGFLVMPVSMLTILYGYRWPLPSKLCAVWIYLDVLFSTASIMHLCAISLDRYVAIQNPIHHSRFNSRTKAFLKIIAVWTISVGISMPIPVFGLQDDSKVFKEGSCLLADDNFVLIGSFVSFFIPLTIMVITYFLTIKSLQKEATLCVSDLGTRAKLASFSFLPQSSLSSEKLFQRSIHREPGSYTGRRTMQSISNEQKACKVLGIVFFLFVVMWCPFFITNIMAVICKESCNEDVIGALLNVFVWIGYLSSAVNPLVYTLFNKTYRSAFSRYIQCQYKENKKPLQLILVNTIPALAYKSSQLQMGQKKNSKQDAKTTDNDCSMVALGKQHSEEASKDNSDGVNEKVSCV
T2 sequence (P41594 21-1212): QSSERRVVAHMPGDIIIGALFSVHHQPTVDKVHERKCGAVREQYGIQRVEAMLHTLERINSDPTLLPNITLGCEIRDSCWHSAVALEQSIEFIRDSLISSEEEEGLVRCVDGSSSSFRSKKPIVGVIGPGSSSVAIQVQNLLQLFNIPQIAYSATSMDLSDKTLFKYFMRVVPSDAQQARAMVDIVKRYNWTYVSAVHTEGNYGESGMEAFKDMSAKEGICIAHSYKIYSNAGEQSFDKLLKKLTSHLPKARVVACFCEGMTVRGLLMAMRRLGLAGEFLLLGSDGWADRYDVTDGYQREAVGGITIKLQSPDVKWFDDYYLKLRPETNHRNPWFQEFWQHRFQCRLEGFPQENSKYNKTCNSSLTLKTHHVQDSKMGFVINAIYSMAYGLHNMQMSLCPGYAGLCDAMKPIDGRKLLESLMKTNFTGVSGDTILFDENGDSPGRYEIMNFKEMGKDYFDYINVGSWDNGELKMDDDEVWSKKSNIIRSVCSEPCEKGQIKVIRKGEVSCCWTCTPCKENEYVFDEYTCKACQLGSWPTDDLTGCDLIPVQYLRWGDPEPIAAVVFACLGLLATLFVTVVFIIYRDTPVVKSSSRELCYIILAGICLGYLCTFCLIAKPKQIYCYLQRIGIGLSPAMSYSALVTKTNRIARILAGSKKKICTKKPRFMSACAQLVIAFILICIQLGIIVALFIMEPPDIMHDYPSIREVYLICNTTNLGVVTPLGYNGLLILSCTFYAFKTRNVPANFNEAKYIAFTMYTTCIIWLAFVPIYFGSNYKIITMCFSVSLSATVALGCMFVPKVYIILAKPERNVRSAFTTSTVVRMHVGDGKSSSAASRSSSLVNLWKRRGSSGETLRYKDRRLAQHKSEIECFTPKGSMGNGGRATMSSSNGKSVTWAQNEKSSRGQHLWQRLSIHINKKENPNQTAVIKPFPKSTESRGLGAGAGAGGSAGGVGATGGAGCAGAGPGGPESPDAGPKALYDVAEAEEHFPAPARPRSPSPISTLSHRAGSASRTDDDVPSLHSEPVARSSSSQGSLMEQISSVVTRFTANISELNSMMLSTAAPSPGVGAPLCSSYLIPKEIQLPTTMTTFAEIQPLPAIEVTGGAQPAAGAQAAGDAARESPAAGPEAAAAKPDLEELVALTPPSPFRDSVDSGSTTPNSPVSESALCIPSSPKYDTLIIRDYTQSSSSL

| SMILES | pIC50 (human 5-HT2AR) | pIC50 (mGluR5) | other results |
| --- | --- | --- | --- |
| O=C(NCC1(NC2CC2)CCCCCC1)c1ccc(C#Cc2ccccn2)cc1 [Example 1, N-((1-(cyclopropylamino)cycloheptyl)methyl)-4-(pyridin-2-ylethynyl)benzamide] | 6.30 to 7.00 | 5.70 to 6.00 | inhibition in vivo at 100 mg/kg [1, 2]: 60.5%; inhibition in vivo at 100 mg/kg [1, 3]: 85.7% |
| O=C(NCC1(NC2CC2)CCCC1)c1ccc(C#Cc2ccncc2)cc1 [Example 2, N-((1-(cyclopropylamino)cyclopentyl)methyl)-4-(pyridin-4-ylethynyl)benzamide] | > 7.00 | 6.00 to 6.30 | inhibition in vivo at 12.5 mg/kg [1, 2]: 3.91%; inhibition in vivo at 12.5 mg/kg [1, 3]: 28.1% |
| O=C(NCC1(NC2CC2)CCCC1)c1ccc(C#Cc2ccc(F)cn2)cc1 [Example 3, N-((1-(cyclopropylamino)cyclopentyl)methyl)-4-((5-fluoropyridin-2-yl)ethynyl)benzamide] | 6.30 to 7.00 | 6.00 to 6.30 | inhibition in vivo at 50 mg/kg [1, 2]: 59%; inhibition in vivo at 50 mg/kg [1, 3]: 87.9% |
| CC1(CNC(=O)c2ccc(C#Cc3ccccc3F)cc2)CCC1 [Example 105, 4-((2-fluorophenyl)ethynyl)-N-((1-methylcyclobutyl)methyl)benzamide] | 6.00 to 6.30 | > 7.00 |  |
| CC1(CNC(=O)c2ccc(C#Cc3ccc(F)cc3)cc2)CCC1 [Example 106, 4-((4-fluorophenyl)ethynyl)-N-((1-methylcyclobutyl)methyl)benzamide] | 6.30 to 7.00 | > 7.00 |  |
| CC1(CNC(=O)c2ccc(C#Cc3ccc(F)cc3F)cc2)CCC1 [Example 107, 4-((2,4-difluorophenyl)ethynyl)-N-((1-methylcyclobutyl)methyl)benzamide] | > 7.00 | > 7.00 |  |
| CC1(CNC(=O)c2ccc(C#Cc3ccc(F)cc3F)cc2)CCCC1 [Example 108, 4-((2,4-difluorophenyl)ethynyl)-N-((1-methylcyclopentyl)methyl)benzamide] | 6.30 to 7.00 | > 7.00 |  |
| O=C(NC[C@H]1CCOC1)c1ccc(C#Cc2ccc(F)cc2F)cc1 [Example 109, (R)-4-((2,4-difluorophenyl)ethynyl)-N-((tetrahydrofuran-3-yl)methyl)benzamide] | 6.30 to 7.00 | 6.00 to 6.30 |  |
| O=C(NC[C@H]1CCCO1)c1ccc(C#Cc2ccc(F)cc2)cc1 [Example 110, (R)-4-((4-fluorophenyl)ethynyl)-N-((tetrahydrofuran-2-yl)methyl)benzamide] | 6.30 to 7.00 | > 7.00 |  |
| O=C(NC[C@@H]1CCCO1)c1ccc(C#Cc2ccc(F)cc2)cc1 [Example 111, (S)-4-((4-fluorophenyl)ethynyl)-N-((tetrahydrofuran-2-yl)methyl)benzamide] | 6.30 to 7.00 | 6.30 to 7.00 |  |
| CCC1(CNC(=O)c2ccc(C#Cc3ccc(F)cc3)cc2)COC1 [Example 112, N-((3-ethyloxetan-3-yl)methyl)-4-((4-fluorophenyl)ethynyl)benzamide] | 6.30 to 7.00 | 6.30 to 7.00 |  |
| O=C(NC[C@@H]1CCOC1)c1ccc(C#Cc2ccc(F)cc2F)cc1 [Example 113, (S)-4-((2,4-difluorophenyl)ethynyl)-N-((tetrahydrofuran-3-yl)methyl)benzamide] | > 7.00 | 6.00 to 6.30 |  |
| O=C(NC[C@H]1CCCO1)c1ccc(C#Cc2ccc(F)cc2F)cc1 [Example 114, (R)-4-((2,4-difluorophenyl)ethynyl)-N-((tetrahydrofuran-2-yl)methyl)benzamide] | > 7.00 | > 7.00 |  |
| O=C(NCC1CCCCO1)c1ccc(C#Cc2ccc(F)cc2F)cc1 (stereo not shown) [Example 115, 4-((2,4-difluorophenyl)ethynyl)-N-((tetrahydro-2H-pyran-2-yl)methyl)benzamide] | > 7.00 | 6.30 to 7.00 |  |
| CC1(CNC(=O)c2ccc(C#Cc3ccc(F)cc3)cc2)CCCO1 (stereo not shown) [Example 116, 4-((4-fluorophenyl)ethynyl)-N-((2-methyltetrahydrofuran-2-yl)methyl)benzamide] | > 7.00 | > 7.00 |  |
| O=C(NC[C@@H]1CCCO1)c1ccc(C#Cc2ccc(F)cc2F)cc1 [Example 117, (S)-4-((2,4-difluorophenyl)ethynyl)-N-((tetrahydrofuran-2-yl)methyl)benzamide] | > 7.00 | 6.00 to 6.30 |  |
| O=C(NCC1CCO1)c1ccc(C#Cc2ccc(F)cc2F)cc1 (stereo not shown) [Example 118, 4-((2,4-difluorophenyl)ethynyl)-N-(oxetan-2-ylmethyl)benzamide] | > 7.00 | 5.70 to 6.00 |  |
| CC1(CNC(=O)c2ccc(C#Cc3ccc(F)cc3F)cc2)CCCO1 (stereo not shown) [Example 119, 4-((2,4-difluorophenyl)ethynyl)-N-((2-methyltetrahydrofuran-2-yl)methyl)benzamide] | > 7.00 | > 7.00 |  |
| O=C(NCC1CC(F)(F)C1)c1ccc(C#Cc2ccc(F)cc2F)cc1 [Example 120, N-((3,3-difluorocyclobutyl)methyl)-4-((2,4-difluorophenyl)ethynyl)benzamide] | > 7.00 | 6.30 to 7.00 |  |
| O=C(NCC1CCC(F)(F)CC1)c1ccc(C#Cc2ccc(F)cc2F)cc1 [Example 121, N-((4,4-difluorocyclohexyl)methyl)-4-((2,4-difluorophenyl)ethynyl)benzamide] | 6.00 to 6.30 | > 7.00 |  |
| CCC1(CNC(=O)c2ccc(C#Cc3ccc(F)cc3F)cc2)COC1 [Example 122, 4-((2,4-difluorophenyl)ethynyl)-N-((3-ethyloxetan-3-yl)methyl)benzamide] | > 7.00 | 6.30 to 7.00 |  |
| O=C(NCC1(F)COC1)c1ccc(C#Cc2ccc(F)cc2F)cc1 [Example 123, 4-((2,4-difluorophenyl)ethynyl)-N-((3-fluorooxetan-3-yl)methyl)benzamide] | > 7.00 | 6.00 to 6.30 |  |
| O=C(NC[C@@H]1CCCOC1)c1ccc(C#Cc2ccc(F)cc2F)cc1 [Example 124, (S)-4-((2,4-difluorophenyl)ethynyl)-N-((tetrahydro-2H-pyran-3-yl)methyl)benzamide] | 6.30 to 7.00 | 6.30 to 7.00 |  |
